The values that follow come from publication PMC9179341, “Design of New Potent and Selective Thiophene-Based KV1.3 Inhibitors and Their Potential for Anticancer Activity” (Cancers, 2022).

In data set [1] the target is T1, KV1.3 (Homo sapiens, UniProt P22001). As to the kind of experiment: KV1.3 inhibition, HiClamp on Xenopus laevis oocytes. Type of data set: cell-based. Conditions: Xenopus laevis oocytes (marked * in Table 2). On the procedure:
(§1) Stage V–VI oocytes were isolated by partial ovariectomy from Xenopus laevis frogs (African clawed frogs). […] After anaesthetizing the frogs by a 15-min submersion in 0.1% tricaine methanesulfonate (amino benzoic acid ethyl ester; Merck, Kenilworth, NJ, USA), pH 7.0, the oocytes were collected. The isolated oocytes were then washed with a 1.5 mg/mL collagenase solution for 2 h to remove the follicle layer.
(§2) Ion channels (Kv1.x, Kv2.1, Kv4.2, Kv10.1) were expressed in Xenopus laevis oocytes by linearization of the plasmids and subsequent in vitro transcription using a commercial T7 or SP6 mMESSAGE mMACHINE transcription kit (Ambion, Carlsbad, California, USA). Defolliculated Xenopus oocytes were then injected with 20–50 nL of the cRNA at a concentration of 1 ng/nL using a micro-injector (Drummond Scientific1, Broomall, PA, USA). The oocytes were incubated in a solution containing (in mM): NaCl, 96; KCl, 2; CaCl2, 1.8; MgCl2, 2 and HEPES, 5 (pH 7.5), supplemented with 50 mg/L gentamycin sulfate and 90 mg/L theophylline.
(§3) Two-electrode voltage-clamp recordings were performed at room temperature (18–22 °C) using a Geneclamp 500 amplifier (Molecular Devices, San Jose, CA, USA) and pClamp data acquisition (Axon Instruments, Union City, CA, USA) and using an integrated digital TEVC amplifier controlled by HiClamp, an automated Voltage-Clamp Screening System (Multi Channel Systems MCS GmbH, Reutlingen, Germany). Whole-cell currents from oocytes were recorded 1–4 days after injection. The bath solution composition was ND96 (in mM): NaCl, 96; KCl, 2; CaCl2, 1.8; MgCl2, 2 and HEPES, 5 (pH 7.5). Voltage and current electrodes were filled with a 3 M solution of KCl in H2O. […] The elicited Kv1.x, Kv2.1, Kv4.2 and Kv10.1 currents were filtered at 0.5 kHz and sampled at 2 kHz using a four-pole low-pass Bessel filter. Leak subtraction was performed using a P/4 protocol.
(§4) For the electrophysiological analysis of the compounds, a number of protocols were applied from a holding potential of −90 mV. Currents for Kv1.x, Kv2.1, Kv4.2 and Kv10.1 were evoked by 1 s depolarizing pulses either to 0 mV or to a range of voltage steps between −80 mV and +40 mV. For the analysis of the data, only the inhibition at the 0 mV step was used. The concentration dependency of all compounds was assessed by measuring the current inhibition in the presence of increasing compound concentrations. […] From this stock solution, adequate dilutions with a maximum of 0.5% DMSO were made for testing.
(§5) All electrophysiological data (Figure S1) are presented as means ± S.E.M of n ≥ three independent experiments unless otherwise indicated. […] The Dunnett test and one-way ANOVA were performed to calculate the significance of the induced inhibition compared to the control.

Data set [2] addresses T1, KV1.3. As to the kind of experiment: KV1.3 inhibition, manual voltage-clamp on Xenopus laevis oocytes. The class given is cell-based. The conditions noted are these: for inhibition at 10 µM: manual voltage-clamp on Xenopus laevis oocytes; for IC50: KV1.3, manual voltage-clamp, Xenopus laevis oocytes. On the procedure: as §1, §2, §3, §4, §5
Data set [3] concerns the target T1, KV1.3. Nature of the data set: KV1.3 inhibition, manual whole-cell patch-clamp on Ltk^− cells. Type of data set: cell-based. Details: expressed in transfected cells; host or cells: Ltk- cells (mouse fibroblasts), transient transfection with lipofectamine 2000. On the technique in general: Patch clamp records ionic current or voltage across a cell membrane.
Description: Ltk^− cells were cultured in Dulbecco’s Modified Eagle Medium (DMEM) supplemented with 10% horse serum and 1% penicillin/streptomycin (Invitrogen, Waltham, CA, USA). […] The coding sequence of hKv1.3 was cloned in a pEGFP plasmid without removing the stop codon (i.e., eGFP was not transcribed). Therefore, during transfection 0.5 µg of pEGFP plasmid (expressing eGFP) was added as transfection marker Cells were collected 24h post-transfection using a 0.05% trypsin-EDTA solution (Thermo Fisher Scientific, Waltham, MA, USA) and transferred to the recording chamber mounted on the stage of an inverted Nikon Eclipse TE2000 fluorescence microscope (Nikon, Minato, Japan). The compounds were dissolved in 100% DMSO and stock solutions were stored at -20°C. Before use, the stock concentrations were diluted with extracellular recording solution to appropriate concentrations, making sure that the final DMSO concentration never exceeded 0.1%. A 0.1% DMSO solution was prepared as a vehicle control.
All recordings were conducted at room temperature (20–23 °C) in the whole-cell configuration using an axopatch 200b amplifier (Molecular Devices, San Jose, CA, USA). Applied voltage pulse protocols and current recordings were controlled with pClamp 10 software and digitized using an axon digidata 1440 (Molecular Devices, San Jose, CA, USA). The cells in the recording chamber were continuously superfused with an extracellular solution (containing in mM): NaCl 145, KCl 4, MgCl2 1, CaCl2 1.8, HEPES 10, and glucose 10 (adjusted to pH 7.35 with NaOH). Patch pipettes were pulled from borosilicate glass (World Precision Instruments, Sarasota, FL, USA), using a P-2000 puller (Sutter Instruments, Novato, CA, USA), with resistances ranging from 1.5–2 MΩ. These pipettes were backfilled with an intracellular solution (containing in mM): KCl 110, K2ATP 5, MgCl2 2, HEPES 10, and K4BAPTA 5 (adjusted to pH 7.2 with KOH). Junction potentials were zeroed with the filled pipette in the extracellular solution of the recording chamber. A series resistance compensation of 80% was employed. Recordings were passed through a 5 kHz low-pass filter while being sampled at 10 kHz. A single step from holding potential (−80 mV) to +40 mV was utilized to monitor KV1.3 current inhibition. The pulse duration was 200 ms with an interpulse interval of 15 s. […]
The data was analyzed with pClamp 10 software (Molecular Devices, San Jose, CA, USA), and the dose-response curves shown were made using Sigmaplot 11.0 (Systat software, Palo Alto, CA USA). […] Results are expressed as mean ± SEM, with n being the number of cells analyzed. EC50 values were determined by fitting the Hill equation to the dose-response curve.
For a further data set, the target named is KV1.5 (Homo sapiens, UniProt P22460). As to the kind of experiment: Selectivity, HiClamp Xenopus laevis heterologous expression system, KV1.5. The conditions noted are these: for IC50: HiClamp, oocytes, NA = no significant inhibition, no IC50 determined; for Effect on KV1.5 channel: at a concentration of the compound's IC50 value for KV1.3. Type of data set: cell-based. The method, then: as §2, with “theophylline. After ex vivo translation, the ion channels were correctly inserted in the cell membrane of the oocytes.” for “theophylline.”
KV1.5, sequence (P22460 whole entry): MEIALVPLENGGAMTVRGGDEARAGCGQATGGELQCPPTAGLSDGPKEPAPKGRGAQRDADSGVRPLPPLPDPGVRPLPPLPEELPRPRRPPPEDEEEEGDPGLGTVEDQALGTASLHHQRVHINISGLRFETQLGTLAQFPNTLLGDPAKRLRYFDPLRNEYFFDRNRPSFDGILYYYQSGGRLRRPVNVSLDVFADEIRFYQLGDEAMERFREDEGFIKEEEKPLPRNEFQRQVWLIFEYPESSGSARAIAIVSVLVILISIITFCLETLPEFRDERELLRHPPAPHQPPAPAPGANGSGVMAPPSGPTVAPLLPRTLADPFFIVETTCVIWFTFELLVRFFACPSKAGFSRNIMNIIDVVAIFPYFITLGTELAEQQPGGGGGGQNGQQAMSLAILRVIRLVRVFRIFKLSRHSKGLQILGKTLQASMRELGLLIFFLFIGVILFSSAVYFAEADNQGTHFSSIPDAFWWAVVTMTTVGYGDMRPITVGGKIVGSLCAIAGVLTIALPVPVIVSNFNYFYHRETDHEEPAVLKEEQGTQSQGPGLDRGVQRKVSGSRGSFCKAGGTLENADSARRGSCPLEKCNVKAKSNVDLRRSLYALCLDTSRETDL
Two-electrode voltage-clamp recordings were performed at room temperature (18–22 °C) using a Geneclamp 500 amplifier (Molecular Devices, San Jose, CA, USA) and pClamp data acquisition (Axon Instruments, Union City, CA, USA) and using an integrated digital TEVC amplifier controlled by HiClamp, an automated Voltage-Clamp Screening System (Multi Channel Systems MCS GmbH, Reutlingen, Germany). Whole-cell currents from oocytes were recorded 1–4 days after injection. The bath solution composition was ND96 (in mM): NaCl, 96; KCl, 2; CaCl2, 1.8; MgCl2, 2 and HEPES, 5 (pH 7.5). Voltage and current electrodes were filled with a 3 M solution of KCl in H2O. Resistances of both electrodes were kept between 0.5 and 1.5 MΩ. The elicited Kv1.x, Kv2.1, Kv4.2 and Kv10.1 currents were filtered at 0.5 kHz and sampled at 2 kHz using a four-pole low-pass Bessel filter. Leak subtraction was performed using a P/4 protocol.
as §4
All electrophysiological data (Figure S1) are presented as means ± S.E.M of n ≥ three independent experiments unless otherwise indicated. All data were analyzed using pClamp Clampfit 10.4 (Molecular Devices, Downingtown, PA, USA), OriginPro 9 (Originlab, Northampton, MA, USA), GraphPad Prism 8 software (GraphPad Software, Inc., San Diego, CA, USA) and DataMining (Multi Channel Systems MCS GmbH, Reutlingen, Germany). The Dunnett test and one-way ANOVA were performed to calculate the significance of the induced inhibition compared to the control.

Data set [4] in a line: Turbidimetric solubility assay. The class given is physicochemical. Conditions: for solubility: pH 7.4, aqueous buffer, kinetic from dmso stock, phosphate-buffered saline, final 1% DMSO, read-out: Concentration at which compound was soluble (turbidimetric solubility test). The method, then:
For the phosphate-buffered saline, we dissolved 2.38 g of disodium hydrogen phosphate dodecahydrate, 0.19 g of potassium dihydrogen phosphate, and 8.0 g of sodium chloride in water and diluted it to 1000 mL with the same solvent. Then we adjusted the pH to 7.4. The stock DMSO solutions of the compounds were prepared at concentrations of 50 mM, 20 mM, 10 mM, and 1 mM. The final solutions (500 µM, 200 µM, 100 µM, and 10 µM) were prepared by adding 2 µL of the stock DMSO solution to 198 µL of phosphate-buffered saline. The absorbance (area scan) was measured at 620 nm for sample volume of 200 µL and the appearance of the solutions was checked by visual inspection.

Where [5] appears, read: 10 µM in PBS with 1 % final DMSO.
Setting [6] is: 100 µM in PBS with 1 % final DMSO.
[7] abbreviates: 200 µM in PBS with 1 % final DMSO.
Where [8] appears, read: 500 µM in PBS with 1 % final DMSO.

T1 sequence (P22001 whole entry): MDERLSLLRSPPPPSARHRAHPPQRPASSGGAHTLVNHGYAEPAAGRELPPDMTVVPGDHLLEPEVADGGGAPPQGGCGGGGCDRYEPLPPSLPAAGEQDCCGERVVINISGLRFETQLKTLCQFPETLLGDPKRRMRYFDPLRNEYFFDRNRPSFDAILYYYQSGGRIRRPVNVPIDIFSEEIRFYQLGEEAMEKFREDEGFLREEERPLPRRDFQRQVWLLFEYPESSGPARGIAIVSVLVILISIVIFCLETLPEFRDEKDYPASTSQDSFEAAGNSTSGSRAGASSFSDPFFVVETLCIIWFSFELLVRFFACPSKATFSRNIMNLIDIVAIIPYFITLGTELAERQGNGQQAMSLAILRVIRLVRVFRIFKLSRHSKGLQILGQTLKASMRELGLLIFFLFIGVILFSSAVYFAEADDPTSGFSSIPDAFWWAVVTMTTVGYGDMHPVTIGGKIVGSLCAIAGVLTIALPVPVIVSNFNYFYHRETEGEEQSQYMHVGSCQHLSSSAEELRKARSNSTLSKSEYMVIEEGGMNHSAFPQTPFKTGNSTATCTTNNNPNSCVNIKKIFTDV

In general, IC50 refers to the concentration needed to halve the response being measured. The low end stands for inhibition by little substance, the high end for a need for much substance. For orientation: inhibition means the change of the read-out against control, counted positive when it falls. A higher inhibition goes with a response far below the control. With `COc1ccccc1C(=O)NCC1(c2cccs2)CCOC1` (centres unmarked) [Compound 14], the 50% inhibitory concentration (IC50) was 1030 ± 30 nM on KV1.3 [1], 570 nM against KV1.3 [2], 1330 ± 200 nM on KV1.3 [3] and 2070 ± 130 nM against KV1.5. The molecule also returned an inhibition at 10 µM against KV1.3 [2] of 92 ± 4%. Moreover, the “Effect on KV1.5 channel” value at KV1.5 was “significant effects”.

As to `COc1ccc(F)cc1C(=O)NCC1(c2ccccc2)CCOCC1` [Compound 37], the half-inhibitory concentration (IC50) at KV1.3 [1] is 1970 nM; against KV1.3 [2], 3960 ± 470 nM; on KV1.3 [3], 1350 ± 40 nM; against KV1.5, 8640 ± 30 nM. The “absorbance at 620 nm” value in data set [4] (setting [5]) was 0; in data set [4] (setting [6]), 0,003; in data set [4] (setting [7]), 0,005; in data set [4] (setting [8]), 0,077. Moreover, in data set [4], the solubility is at least 200 µM. At KV1.3 [2], testing at 10 µM gave an inhibition of 94 ± 1%. For the same molecule, the “Effect on KV1.5 channel” value at KV1.5 is reported as “significantly inhibited”.

Consider `COc1ccccc1C(=O)NCC1(c2cccs2)CCOCC1` [Compound 43], for which the IC50 against KV1.3 [1] was 1200 ± 20 nM; against KV1.3 [2], 590 nM; against KV1.3 [3], 1020 ± 70 nM; on KV1.5, 4330 ± 10 nM. Besides, the “absorbance at 620 nm” value in data set [4] (setting [5]) was 0,01; in data set [4] (setting [6]) it was 0,002; in data set [4] (setting [7]), 0,003; in data set [4] (setting [8]), 0,011. The solubility in data set [4] was at least 500 µM. Also, the inhibition at 10 µM against KV1.3 [2] stood at 92 ± 1%. Further, at KV1.5, the “Effect on KV1.5 channel” value was “significant effects”.

In the case of `COc1ccccc1C(=O)NCC1(c2ccsc2)CCOCC1` [Compound 44], the IC50 against KV1.3 [1] was 1990 ± 610 nM; against KV1.3 [2] it was 470 nM; at KV1.3 [3], 950 ± 240 nM. For the same molecule, the “absorbance at 620 nm” value is 0 in data set [4] (setting [5]), 0,003 in data set [4] (setting [6]), 0,003 in data set [4] (setting [7]) and 0,014 in data set [4] (setting [8]). The solubility in data set [4] is at least 500 µM. The same molecule returned an inhibition at 10 µM at KV1.3 [2] of 96 ± 1%. Besides, at KV1.5, the “Effect on KV1.5 channel” value is “no significant effects”.
